Source: patent publication US10597388B2, “Pyridazinone herbicides” (FMC CORPORATION, priority 2014, dated 2020)

How the values were obtained:
Experiment in all cases: Test C greenhouse herbicide test, pre- and postemergence
Assay type in all cases: in vivo
[1] = tested on: lambsquarters (Chenopodium album)
How it was run: (§1)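 Seeds sown in loam–sand blend treated preemergence; plants in peat-based medium sprayed postemergence at 2–18 cm (1- to 4-leaf stage); chemicals in non-phytotoxic solvent with surfactant. Greenhouse 13–15 d, then visual rating versus controls on 0–100 scale (0 no effect, 100 complete control).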

[2] = tested on: foxtail, giant (giant foxtail, Setaria faberii)
How it was run: as §1

[3] = tested on: blackgrass (Alopecurus myosuroides)
How it was run: as §1

[4] = tested on: ryegrass, Italian (Italian ryegrass, Lolium multiflorum)
How it was run: as §1

[5] = tested on: velvetleaf (Abutilon theophrasti)
How it was run: as §1

[6] = tested on: waterhemp (common waterhemp, Amaranthus rudis)
How it was run: as §1

[7] = tested on: barnyardgrass (Echinochloa crus-galli)
How it was run: as §1

[8] = tested on: morningglory (Ipomoea coccinea)
How it was run: as §1

corn (Zea mays) = tested on: corn (Zea mays)
How it was run: as §1

soybean (Glycine max) = tested on: soybean (Glycine max)
How it was run: as §1

[9] = tested on: pigweed (Amaranthus retroflexus)
How it was run: as §1

[10] = tested on: wheat (winter wheat, Triticum aestivum)
How it was run: as §1

[11] = tested on: galium (catchweed bedstraw, Galium aparine)
How it was run: as §1

[12] = tested on: nutsedge, yellow (yellow nutsedge, Cyperus esculentus)
How it was run: as §1

[13] = tested on: crabgrass, large (large crabgrass, Digitaria sanguinalis)
How it was run: as §1

[14] = Postemergence, 31 g ai/ha, scale 0 to 100 (0 no effect, 100 complete control)
[15] = Postemergence, 125 g ai/ha, scale 0 to 100, 0 is no effect, 100 is complete control
[16] = Postemergence, 250 g ai/ha, scale 0 to 100, 0 no effect, 100 complete control, 13 to 15 d
[17] = Preemergence, 31 g ai/ha, scale 0 to 100, 0 is no effect, 100 is complete control
[18] = Preemergence, 62 g ai/ha, scale 0 to 100, 0 is no effect, 100 is complete control
[19] = Preemergence, 125 g ai/ha, scale 0 to 100, 0 is no effect, 100 is complete control
[20] = Preemergence, 250 g ai/ha, scale 0 to 100, 0 no effect, 100 complete control
[21] = postemergence, 62 g ai/ha, scale 0 to 100, 0 no effect, 100 complete control

CC(=O)Oc1c(C)nn(C)c(=O)c1-c1c(C)sc2ccc(Cl)cc12 [Compound 108]
Plant response rating, Lambsquarters [1, 14]: 90 | Plant response rating, Lambsquarters [1, 15]: 98 | Plant response rating, Lambsquarters [1, 16]: 98 | Plant response rating, Lambsquarters [1, 17]: 85 | Plant response rating, Lambsquarters [1, 18]: 90 | Plant response rating, Lambsquarters [1, 19]: 90 | Lambsquarters plant response rating [1, 20]: 100 | Plant response rating, Foxtail, Giant [2, 14]: 30 | Plant response rating, Foxtail, Giant [2, 15]: 75 | Plant response rating, Foxtail, Giant [2, 16]: 85 | Plant response rating, Foxtail, Giant [2, 17]: 65 | Plant response rating, Foxtail, Giant [2, 18]: 85 | Plant response rating, Foxtail, Giant [2, 19]: 85 | Foxtail, Giant plant response rating [2, 20]: 95 | Plant response rating, Blackgrass [3, 14]: 15 | Plant response rating, Blackgrass [3, 15]: 35 | Plant response rating, Blackgrass [3, 16]: 55 | Plant response rating, Blackgrass [3, 17]: 10 | Plant response rating, Blackgrass [3, 18]: 0 | Plant response rating, Blackgrass [3, 19]: 60 | Blackgrass plant response rating [3, 20]: 85 | Blackgrass plant response rating [3, 21]: 35 | Plant response rating, Ryegrass, Italian [4, 14]: 90 | Plant response rating, Ryegrass, Italian [4, 15]: 90 | Plant response rating, Ryegrass, Italian [4, 16]: 90 | Plant response rating, Ryegrass, Italian [4, 17]: 60 | Plant response rating, Ryegrass, Italian [4, 18]: 85 | Plant response rating, Ryegrass, Italian [4, 19]: 90 | Ryegrass, Italian plant response rating [4, 20]: 95 | Plant response rating, Velvetleaf [5, 14]: 70 | Plant response rating, Velvetleaf [5, 15]: 100 | Plant response rating, Velvetleaf [5, 16]: 100 | Plant response rating, Velvetleaf [5, 17]: 50 | Plant response rating, Velvetleaf [5, 18]: 75 | Plant response rating, Velvetleaf [5, 19]: 85 | Velvetleaf plant response rating [5, 20]: 90 | Plant response rating, Waterhemp [6, 14]: 85 | Plant response rating, Waterhemp [6, 15]: 90 | Plant response rating, Waterhemp [6, 16]: 98 | Plant response rating, Waterhemp [6, 17]: 75 | Plant response rating, Waterhemp [6, 18]: 90 | Plant response rating, Waterhemp [6, 19]: 100 | Waterhemp plant response rating [6, 20]: 100 | Plant response rating, Barnyardgrass [7, 14]: 20 | Plant response rating, Barnyardgrass [7, 15]: 40 | Plant response rating, Barnyardgrass [7, 16]: 60 | Plant response rating, Barnyardgrass [7, 17]: 5 | Plant response rating, Barnyardgrass [7, 18]: 35 | Plant response rating, Barnyardgrass [7, 19]: 35 | Barnyardgrass plant response rating [7, 20]: 85 | Barnyardgrass plant response rating [7, 21]: 35 | Plant response rating, Morningglory [8, 14]: 98 | Plant response rating, Morningglory [8, 15]: 98 | Plant response rating, Morningglory [8, 16]: 100 | Plant response rating, Morningglory [8, 17]: 80 | Plant response rating, Morningglory [8, 18]: 90 | Plant response rating, Morningglory [8, 19]: 98 | Morningglory plant response rating [8, 20]: 98 | Plant response rating, Corn (corn (Zea mays); [14]): 5 | Plant response rating, Corn (corn (Zea mays); [15]): 25 | Plant response rating, Corn (corn (Zea mays); [16]): 30 | Plant response rating, Corn (corn (Zea mays); [17]): 5 | Plant response rating, Corn (corn (Zea mays); [18]): 10 | Plant response rating, Corn (corn (Zea mays); [19]): 5 | Corn plant response rating (corn (Zea mays); [20]): 15 | Corn plant response rating (corn (Zea mays); [21]): 40 | Plant response rating, Soybean (soybean (Glycine max); [14]): 10 | Plant response rating, Soybean (soybean (Glycine max); [15]): 15 | Plant response rating, Soybean (soybean (Glycine max); [16]): 15 | Plant response rating, Soybean (soybean (Glycine max); [17]): 0 | Plant response rating, Soybean (soybean (Glycine max); [18]): 0 | Plant response rating, Soybean (soybean (Glycine max); [19]): 0 | Soybean plant response rating (soybean (Glycine max); [20]): 0 | Plant response rating, Pigweed [9, 14]: 90 | Plant response rating, Pigweed [9, 15]: 98 | Plant response rating, Pigweed [9, 16]: 98 | Plant response rating, Pigweed [9, 17]: 100 | Plant response rating, Pigweed [9, 18]: 100 | Plant response rating, Pigweed [9, 19]: 100 | Pigweed plant response rating [9, 20]: 100 | Plant response rating, Wheat [10, 14]: 0 | Plant response rating, Wheat [10, 15]: 5 | Plant response rating, Wheat [10, 16]: 10 | Plant response rating, Wheat [10, 17]: 0 | Plant response rating, Wheat [10, 18]: 10 | Plant response rating, Wheat [10, 19]: 15 | Wheat plant response rating [10, 20]: 10 | Plant response rating, Galium [11, 14]: 90 | Plant response rating, Galium [11, 15]: 95 | Plant response rating, Galium [11, 16]: 95 | Plant response rating, Galium [11, 17]: 90 | Plant response rating, Galium [11, 18]: 90 | Plant response rating, Galium [11, 19]: 95 | Galium plant response rating [11, 20]: 95 | Plant response rating, Nutsedge, Yellow [12, 14]: 30 | Plant response rating, Nutsedge, Yellow [12, 15]: 70 | Plant response rating, Nutsedge, Yellow [12, 16]: 75 | Plant response rating, Nutsedge, Yellow [12, 17]: 35 | Plant response rating, Nutsedge, Yellow [12, 18]: 80 | Plant response rating, Nutsedge, Yellow [12, 19]: 70 | Nutsedge, Yellow plant response rating [12, 20]: 80 | Plant response rating, Crabgrass, Large [13, 14]: 5 | Plant response rating, Crabgrass, Large [13, 15]: 25 | Plant response rating, Crabgrass, Large [13, 16]: 40 | Plant response rating, Crabgrass, Large [13, 17]: 5 | Plant response rating, Crabgrass, Large [13, 18]: 70 | Plant response rating, Crabgrass, Large [13, 19]: 65 | Crabgrass, Large plant response rating [13, 20]: 70 | Crabgrass, Large plant response rating [13, 21]: 10
